Measured values reported in publication PMC8111429 (2021).

Experiments:
[1] = tested on: 22AG (DNA, G4) AGGGTTAGGGTTAGGGTTAGGG; test: photometric (absorption) titration; conditions: K+ 110 mM; K-phosphate buffer, pH 7.0, 5% v/v DMSO; ligand 20 µM; per site
[2] = tested on: F21T (DNA, G4) GGGTTAGGGTTAGGGTTAGGG; test: FRET melting; conditions: K+ 10 mM, Na+ 10 mM, Li+ 90 mM; KCl–LiCl–cacodylate, pH 7.0; LDR 5; DNA 0.2 mM [sic] (0.2 µM, ligand 1 µM)
[3] = tested on: FmycT (DNA, G4) TGAGGGTGGGTAGGGTGGGTA; test: FRET melting; conditions: K+ 10 mM, Na+ 10 mM, Li+ 90 mM; KCl–LiCl–cacodylate, pH 7.0; LDR 5; DNA 0.2 mM [sic] (0.2 µM, ligand 1 µM)
[4] = tested on: Fa2T (DNA, G4) ACAGGGTGTACAGGGTGT; test: FRET melting; conditions: K+ 10 mM, Na+ 10 mM, Li+ 90 mM; KCl–LiCl–cacodylate, pH 7.0; LDR 5; DNA 0.2 mM [sic] (0.2 µM, ligand 1 µM)
[5] = tested on: FkitT (DNA, G4) AGGGAGGGCGCTGGGAGGAGGG; test: FRET melting; conditions: K+ 10 mM, Na+ 10 mM, Li+ 90 mM; KCl–LiCl–cacodylate, pH 7.0; LDR 5; DNA 0.2 mM [sic] (0.2 µM, ligand 1 µM)

| SMILES | Kb [1] | ∆Tm [2] [°C] | ∆Tm [3] [°C] | ∆Tm [4] [°C] | ∆Tm [5] [°C] |
| --- | --- | --- | --- | --- | --- |
| COc1c(Oc2ccc(Br)cc2)ccc2cc3[n+](cc12)CCc1cc2c(cc1-3)OCO2 | 5.2 ± 0.3 × 10^5 M^-1 | 1.8 ± 0.5 | 2.1 ± 0.5 |  |  |
| COc1c(Oc2ccc(Cl)cc2)ccc2cc3[n+](cc12)CCc1cc2c(cc1-3)OCO2 | 7.1 ± 0.2 × 10^5 M^-1 | 2.6 ± 0.5 |  | 1.2 ± 0.5 |  |
| COc1c(Oc2ccc([N+](=O)[O-])cc2)ccc2cc3[n+](cc12)CCc1cc2c(cc1-3)OCO2 | 7.9 ± 0.3 × 10^5 M^-1 | 3.5 ± 0.5 | 1.8 ± 0.5 |  |  |
| COc1c(Oc2ccccc2)ccc2cc3[n+](cc12)CCc1cc2c(cc1-3)OCO2 | 8.7 ± 0.2 × 10^5 M^-1 | 3.2 ± 0.5 | 0.4 ± 0.5 |  | 0.1 ± 0.5 |
| COc1ccc(Oc2ccc3cc4[n+](cc3c2OC)CCc2cc3c(cc2-4)OCO3)cc1 | 7.2 ± 0.2 × 10^5 M^-1 | 3.9 ± 0.5 |  | 0.1 ± 0.5 | 0.6 ± 0.5 |
